Laboratory results reported in ChEMBL document CHEMBL4414672, “Synthesis of certain benzothieno[3,2-d]pyrimidine derivatives as a selective SIRT2 inhibitors” (Eur J Med Chem, 2020).
Converted amounts (≈) assume the structure as drawn.

Columns and labels:
OVCAR-8 = test: Growth inhibition of human OVCAR8 cells at 10^-5 M incubated for 48 hrs by sulforhodamine B assay; type: functional; conditions: OVCAR-8, 48 h, read-out: GI
HOP-62 = test: Growth inhibition of human HOP62 cells at 10^-5 M incubated for 48 hrs by sulforhodamine B assay; type: functional; conditions: HOP-62, 48 h, read-out: GI
SK-MEL-2 = test: Growth inhibition of human SK-MEL-2 cells at 10^-5 M incubated for 48 hrs by sulforhodamine B assay; type: functional; conditions: SK-MEL-2, 48 h, read-out: GI
K562 = test: Growth inhibition of human K562 cells at 10^-5 M incubated for 48 hrs by sulforhodamine B assay; type: functional; conditions: K562, 48 h, read-out: GI
SF-268 = test: Growth inhibition of human SF268 cells at 10^-5 M incubated for 48 hrs by sulforhodamine B assay; type: functional; conditions: SF-268, 48 h, read-out: GI
NCI-H460 = test: Growth inhibition of human NCI-H460 cells at 10^-5 M incubated for 48 hrs by sulforhodamine B assay; type: functional; conditions: NCI-H460, 48 h, read-out: GI
M14 = test: Growth inhibition of human M14 cells at 10^-5 M incubated for 48 hrs by sulforhodamine B assay; type: functional; conditions: M14, 48 h, read-out: GI
HL-60(TB) = test: Growth inhibition of human HL-60(TB) cells at 10^-5 M incubated for 48 hrs by sulforhodamine B assay; type: functional; conditions: HL-60, 48 h, read-out: GI
MCF7 = test: Cytotoxicity against human MCF7 cells assessed as reduction in cell viability after 24 hrs by MTT assay; type: functional, cell-based; conditions: MCF7, 24 h
SK-MEL-5 = test: Growth inhibition of human SK-MEL-5 cells at 10^-5 M incubated for 48 hrs by sulforhodamine B assay; type: functional; conditions: SK-MEL-5, 48 h, read-out: GI
HCT-116 = test: Growth inhibition of human HCT116 cells at 10^-5 M incubated for 48 hrs by sulforhodamine B assay; type: functional; conditions: HCT-116, 48 h, read-out: GI
U-251 = test: Growth inhibition of human U251 cells at 10^-5 M incubated for 48 hrs by sulforhodamine B assay; type: functional; conditions: U-251, 48 h, read-out: GI
UO-31 [1] = test: Growth inhibition of human UO31 cells at 10^-5 M incubated for 48 hrs by sulforhodamine B assay; type: functional; conditions: UO-31, 48 h, read-out: GI
RXF 393 = test: Growth inhibition of human RXF393 cells at 10^-5 M incubated for 48 hrs by sulforhodamine B assay; type: functional; conditions: RXF 393, 48 h, read-out: GI
786-0 = test: Growth inhibition of human 786-0 cells at 10^-5 M incubated for 48 hrs by sulforhodamine B assay; type: functional; conditions: 786-0, 48 h, read-out: GI
HOP-92 = test: Growth inhibition of human HOP92 cells at 10^-5 M incubated for 48 hrs by sulforhodamine B assay; type: functional; conditions: HOP-92, 48 h, read-out: GI
NCI/ADR-RES = test: Growth inhibition of human NCI/ADR-RES cells at 10^-5 M incubated for 48 hrs by sulforhodamine B assay; type: functional; conditions: read-out: GI
SK-OV-3 = test: Growth inhibition of human SKOV3 cells at 10^-5 M incubated for 48 hrs by sulforhodamine B assay; type: functional; conditions: SK-OV-3, 48 h, read-out: GI
MDA-MB-231 = test: Growth inhibition of human MDA-MB-231 cells at 10^-5 M incubated for 48 hrs by sulforhodamine B assay; type: functional; conditions: MDA-MB-231, 48 h, read-out: GI
KM12 = test: Growth inhibition of human KM12 cells at 10^-5 M incubated for 48 hrs by sulforhodamine B assay; type: functional; conditions: KM12, 48 h, read-out: GI
UO-31 [2] = test: Cytotoxicity against human UO31 cells assessed as reduction in cell viability after 24 hrs by MTT assay; type: functional, cell-based; conditions: UO-31, 24 h
NCI-H23 = test: Growth inhibition of human NCI-H23 cells at 10^-5 M incubated for 48 hrs by sulforhodamine B assay; type: functional; conditions: NCI-H23, 48 h, read-out: GI

SMILES	inhibition of growth at 10 µM (OVCAR-8) [%]	inhibition of growth at 10 µM (HOP-62) [%]	inhibition of growth at 10 µM (SK-MEL-2) [%]	inhibition of growth at 10 µM (K562) [%]	inhibition of growth at 10 µM (SF-268) [%]	inhibition of growth at 10 µM (NCI-H460) [%]	inhibition of growth at 10 µM (M14) [%]	inhibition of growth at 10 µM (HL-60(TB)) [%]	inhibition of growth at 10 µM (SK-MEL-5) [%]	inhibition of growth at 10 µM (HCT-116) [%]	inhibition of growth at 10 µM (U-251) [%]	inhibition of growth at 10 µM (UO-31 [1]) [%]	inhibition of growth at 10 µM (RXF 393) [%]	inhibition of growth at 10 µM (786-0) [%]	inhibition of growth at 10 µM (HOP-92) [%]	inhibition of growth at 10 µM (NCI/ADR-RES) [%]	inhibition of growth at 10 µM (SK-OV-3) [%]	inhibition of growth at 10 µM (MDA-MB-231) [%]	inhibition of growth at 10 µM (KM12) [%]	inhibition of growth at 10 µM (NCI-H23) [%]	further results
NNC1=Nc2c(sc3ccc(Cl)cc23)C(c2cccc([N+](=O)[O-])c2)N1 (stereo not drawn)	-1.52	6.98	-8.15	13.3	1.93	1.16	-4.43	2.98	3.86	-0.35	-3.56	42.9	-16.8	-3.52	-12.8	-3.64	5.88	16.3	1.7	9.49	IC50 (MCF7): 16.4 µg/mL (≈ 43.7 µM); IC50 (UO-31 [2]): 18.3 µg/mL (≈ 49.1 µM)
N#Cc1cnn(C2=Nc3c(sc4ccc(Cl)cc34)C(c3cccc([N+](=O)[O-])c3)N2)c1N (stereo not drawn)	-2.67	5.61	-5.14	1.28	5.36	-1.07	-2.52	-5.54	4.88	5.22	-11.2	41.2	4.09	1	1.55	5.59	5.04	22.9	3.84	19.8	IC50 (MCF7): 11.9 µg/mL (≈ 26.5 µM); IC50 (UO-31 [2]): 32.5 µg/mL (≈ 72.2 µM)
O=C1/C(=C\c2ccc3ccccc3c2)Sc2ccc(Cl)cc21	-4.13	5.71	-0.66	2.65	3.36	0.3	3.18	-7.44	5.71	6.88	-1.36	-5.61	-2.24	0.49	27.3	2.51	-3.03	12.4	-1.53	10.4	IC50 (MCF7): 43.9 µg/mL (≈ 136 µM); IC50 (UO-31 [2]): 39.9 µg/mL (≈ 124 µM)
O=C1SC2=Nc3c(sc4ccc(Cl)cc34)C(c3ccc4ccccc4c3)N2C1=O (stereo not drawn)	5.42	8.58	14.1	12	12.7	4.51	7.5	-4.12	5.6	23.4	-1.96	44.4	3.64	2.6	16.5	4.45	9.71	18.1	7.8	20.5	IC50 (MCF7): 23.3 µg/mL (≈ 53.6 µM); IC50 (UO-31 [2]): 46.7 µg/mL (≈ 107 µM)
N=C1Nc2c(sc3ccc(Cl)cc23)C(c2cccc([N+](=O)[O-])c2)N1 (stereo not drawn)	9.4	-6.16	-19.5	9.47	-1.81	14.7	-5.05	5.44	-2.55	2.65	0.68	11.1	4.42	16.5	19.2	8.91	-1.73	-0.16	6.62	5.31	–
